# Reference: patent US12077503B2, “Substituted cyclic amides and their use as herbicides” (FMC CORPORATION, priority 2015, dated 2024)
# Like-named read-outs stand apart in the source and are kept apart here.
# Legend:
# Format in all cases: in vivo
# [1] = system: pigweed (Amaranthus retroflexus); experiment: Test A preemergence; conditions: Amaranthus retroflexus, pre-emergence, 240 h; for pest or weed control at 125 g/ha: 125 g ai/ha, visual rating after approx. 10 d, 0 to 100 scale where 0 is no effect and 100 is complete control; for pest or weed control at 500 g/ha: 500 g ai/ha
# [2] = system: ryegrass, Italian (Italian ryegrass, Lolium multiflorum); experiment: Test A preemergence; conditions: Lolium multiflorum, pre-emergence, 240 h; for pest or weed control at 125 g/ha: 125 g ai/ha, preemergence, visual rating after approx. 10 d, 0 to 100 scale where 0 is no effect and 100 is complete control
# Outline: (§1)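 Preemergence soil spray on seeded pots or post-emergence spray on 1–2 leaf plants, in loam–sand blend. Greenhouse ~10 d. Visual rating 0–100 against untreated plants.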
# [3] = system: Kochia (Kochia scoparia); experiment: Test A preemergence; conditions: Bassia scoparia, pre-emergence, 240 h; for pest or weed control at 125 g/ha: 125 g ai/ha, visual rating after approx. 10 d, 0 to 100 scale where 0 is no effect and 100 is complete control; for pest or weed control at 500 g/ha: 500 g ai/ha
# Outline: as §1
# [4] = system: giant foxtail (Setaria faberii); experiment: Test A preemergence; conditions: Setaria faberi, pre-emergence, 240 h; for pest or weed control at 125 g/ha: 125 g ai/ha, visual rating after approx. 10 d, 0 to 100 scale where 0 is no effect and 100 is complete control; for pest or weed control at 500 g/ha: 500 g ai/ha
# Outline: as §1
# [5] = system: ragweed (common ragweed, Ambrosia elatior); experiment: Test A preemergence; conditions: Ambrosia artemisiifolia, pre-emergence, 240 h; for pest or weed control at 125 g/ha: 125 g ai/ha, visual rating after approx. 10 d, 0 to 100 scale where 0 is no effect and 100 is complete control; for pest or weed control at 500 g/ha: 500 g ai/ha
# Outline: as §1
# [6] = system: barnyardgrass (Echinochloa crus-galli); experiment: Test A preemergence; conditions: Echinochloa crus-galli, pre-emergence, 240 h; for pest or weed control at 125 g/ha: 125 g ai/ha, visual rating after approx. 10 d, 0 to 100 scale where 0 is no effect and 100 is complete control; for pest or weed control at 500 g/ha: 500 g ai/ha
# Outline: as §1
# [7] = system: ducksalad (Heteranthera limosa); experiment: Test B flooded paddy test; conditions: Heteranthera limosa, Flood, 250 g ai/ha; scale of 0 to 100 where 0 is no effect and 100 is complete control; read-out: Ducksalad plant response rating
# Outline: (§2)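 Visual ratings (0 none to 100 complete control) are relative to untreated plants, taken 13–15 d after treatment in a greenhouse. Test material went straight into floodwater standing 3 cm above the soil, kept constant, on plants at the 2-leaf stage.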
# [8] = system: rice (Oryra sativa); experiment: Test B flooded paddy test; conditions: Oryza sativa, Flood, 250 g ai/ha; scale of 0 to 100 where 0 is no effect and 100 is complete control; read-out: Rice plant response rating
# Outline: as §2
# [9] = system: sedge, umbrella (small-flower umbrella sedge, Cyperus difformis); experiment: Test B flooded paddy test; conditions: Cyperus difformis, Flood, 250 g ai/ha; scale of 0 to 100 where 0 is no effect and 100 is complete control; read-out: Sedge, Umbrella plant response rating
# Outline: as §2
# [10] = system: barnyardgrass (Echinochloa crus-galli); experiment: Test B flooded paddy test; conditions: Echinochloa crus-galli, Flood, 250 g ai/ha; scale of 0 to 100 where 0 is no effect and 100 is complete control; read-out: Barnyardgrass plant response rating
# Outline: as §2
# [11] = system: pigweed (Amaranthus retroflexus); experiment: Test A postemergence; conditions: Amaranthus retroflexus, post-emergence, 240 h; for pest or weed control at 125 g/ha: 125 g ai/ha, postemergence
# Outline: as §1
# [12] = system: corn (Zea mays); experiment: Test A postemergence; conditions: Zea mays, post-emergence, 240 h; for Corn plant response rating (crop injury, 0 = no effect, 100 = complete kill) at 125 g/ha: visual injury after approximately 10 d, 0 to 100 scale (0 no effect, 100 complete control)
# Outline: as §1
# [13] = system: Kochia (Kochia scoparia); experiment: Test A postemergence; conditions: Bassia scoparia, post-emergence, 240 h; for pest or weed control at 125 g/ha: 125 g ai/ha, postemergence
# Outline: as §1
# [14] = system: Galium (catchweed bedstraw, Galium aparine); experiment: Test A postemergence; conditions: Galium, post-emergence, 240 h; for pest or weed control at 125 g/ha: 125 g ai/ha, postemergence
# Outline: as §1
# [15] = preemergence, read-out: Plant response rating, Pigweed
# [16] = read-out: Plant response rating, Ryegrass, Italian
# [17] = preemergence, read-out: Plant response rating, Kochia
# [18] = preemergence, read-out: Plant response rating, Foxtail, Giant
# [19] = preemergence, read-out: Plant response rating, Ragweed
# [20] = preemergence, read-out: Plant response rating, Barnyardgrass
# [21] = visual injury after approximately 10 d, 0 to 100 scale (0 no effect, 100 complete control), read-out: Plant response rating, Pigweed
# [22] = visual injury after approximately 10 d, 0 to 100 scale (0 no effect, 100 complete control), read-out: Plant response rating, Kochia
# [23] = visual injury after approximately 10 d, 0 to 100 scale (0 no effect, 100 complete control), read-out: Plant response rating, Galium
SMILES,"pest or weed control at 125 g/ha [1, 15]","pest or weed control at 125 g/ha [2, 16]","pest or weed control at 125 g/ha [3, 17]","pest or weed control at 125 g/ha [4, 18]","pest or weed control at 125 g/ha [5, 19]","pest or weed control at 125 g/ha [6, 20]",pest or weed control at 250 g/ha [7],pest or weed control at 250 g/ha [8],pest or weed control at 250 g/ha [9],pest or weed control at 250 g/ha [10],"pest or weed control at 125 g/ha [11, 21]","Corn plant response rating (crop injury, 0 = no effect, 100 = complete kill) at 125 g/ha ([12]; 125 g ai/ha, postemergence)","pest or weed control at 125 g/ha [13, 22]","pest or weed control at 125 g/ha [14, 23]",further results
Cc1ccc(NC(=O)[C@H]2C(=O)N(C)C[C@@H]2c2cc(F)cc(F)c2)c(F)c1 [Compound 760],0%,0%,0%,100%,0%,100%,80%,0%,0%,50%,0%,0%,0%,0%,"pest or weed control at 500 g/ha ([1]; preemergence, 0 to 100 scale, 0 = no effect, 100 = complete control, read-out: Plant response rating, Pigweed): 0%; pest or weed control at 500 g/ha ([3]; preemergence, 0 to 100 scale, 0 = no effect, 100 = complete control, read-out: Plant response rating, Kochia): 60%; pest or weed control at 500 g/ha ([4]; preemergence, 0 to 100 scale, 0 = no effect, 100 = complete control, read-out: Plant response rating, Foxtail, Giant): 100%; pest or weed control at 500 g/ha ([5]; preemergence, 0 to 100 scale, 0 = no effect, 100 = complete control, read-out: Plant response rating, Ragweed): 0%; pest or weed control at 500 g/ha ([6]; preemergence, 0 to 100 scale, 0 = no effect, 100 = complete control, read-out: Plant response rating, Barnyardgrass): 100%"
CN1C[C@H](c2cccc(S(C)(=O)=O)c2)[C@@H](C(=O)Nc2cccc(F)c2F)C1=O (racemic) [Compound 777],0%,40%,0%,80%,0%,70%,0%,20%,0%,30%,0%,40%,0%,0%,"pest or weed control at 500 g/ha ([1]; Preemergence, visual injury vs untreated controls after approximately 10 d, read-out: Pigweed plant response rating (0 to 100 scale where 0 is no effect and 100 is complete control)): 40%; pest or weed control at 500 g/ha ([2]; 500 g ai/ha, Preemergence, visual injury vs untreated controls after approximately 10 d, read-out: Ryegrass, Italian plant response rating (0 to 100 scale where 0 is no effect and 100 is complete control)): 70%; pest or weed control at 500 g/ha ([3]; Preemergence, visual injury vs untreated controls after approximately 10 d, read-out: Kochia plant response rating (0 to 100 scale where 0 is no effect and 100 is complete control)): 0%; pest or weed control at 500 g/ha ([4]; Preemergence, visual injury vs untreated controls after approximately 10 d, read-out: Foxtail, Giant plant response rating (0 to 100 scale where 0 is no effect and 100 is complete control)): 100%; pest or weed control at 500 g/ha ([5]; Preemergence, visual injury vs untreated controls after approximately 10 d, read-out: Ragweed plant response rating (0 to 100 scale where 0 is no effect and 100 is complete control)): 0%; pest or weed control at 500 g/ha ([6]; Preemergence, visual injury vs untreated controls after approximately 10 d, read-out: Barnyardgrass plant response rating (0 to 100 scale where 0 is no effect and 100 is complete control)): 100%"
Cc1cc(F)cc([C@H]2CN(C)C(=O)[C@@H]2C(=O)Nc2cccc(F)c2C)c1 [Compound 802],50%,40%,50%,90%,60%,90%,100%,20%,0%,90%,–,–,–,–,"pest or weed control at 31 g/ha ([1]; Preemergence, 31 g ai/ha, 0 to 100 scale (0 no effect, 100 complete control), read-out: Plant response rating, Pigweed): 40%; pest or weed control at 31 g/ha ([2]; Preemergence, 31 g ai/ha, 0 to 100 scale (0 no effect, 100 complete control), read-out: Plant response rating, Ryegrass, Italian): 0%; pest or weed control at 31 g/ha ([3]; Preemergence, 31 g ai/ha, 0 to 100 scale (0 no effect, 100 complete control), read-out: Plant response rating, Kochia): 0%; pest or weed control at 31 g/ha ([4]; Preemergence, 31 g ai/ha, 0 to 100 scale (0 no effect, 100 complete control), read-out: Plant response rating, Foxtail, Giant): 90%; pest or weed control at 31 g/ha ([5]; Preemergence, 31 g ai/ha, 0 to 100 scale (0 no effect, 100 complete control), read-out: Plant response rating, Ragweed): 0%; pest or weed control at 31 g/ha ([6]; Preemergence, 31 g ai/ha, 0 to 100 scale (0 no effect, 100 complete control), read-out: Plant response rating, Barnyardgrass): 80%; pest or weed control at 125 g/ha ([11]; visual injury rating after approximately 10 d, read-out: Pigweed plant response rating (0 to 100 scale, 0 no effect, 100 complete control)): 40%; pest or weed control at 31 g/ha ([11]; Postemergence, 31 g ai/ha, visual injury after approx. 10 d, 0 to 100 scale, 0 no effect, 100 complete control, read-out: Plant response rating, Pigweed): 30%; plant injury at 125 g/ha ([12]; 125 g ai/ha, postemergence, visual injury rating after approximately 10 d, read-out: Corn plant response rating (0 to 100 scale, 0 no effect, 100 complete control)): 70%; Corn plant response rating (crop injury, 0 = no effect, 100 = complete kill) at 31 g/ha ([12]; Postemergence, 31 g ai/ha, visual injury after approx. 10 d, 0 to 100 scale, 0 no effect, 100 complete control): 20%; pest or weed control at 125 g/ha ([13]; visual injury rating after approximately 10 d, read-out: Kochia plant response rating (0 to 100 scale, 0 no effect, 100 complete control)): 40%; pest or weed control at 31 g/ha ([13]; Postemergence, 31 g ai/ha, visual injury after approx. 10 d, 0 to 100 scale, 0 no effect, 100 complete control, read-out: Plant response rating, Kochia): 20%; pest or weed control at 125 g/ha ([14]; visual injury rating after approximately 10 d, read-out: Galium plant response rating (0 to 100 scale, 0 no effect, 100 complete control)): 60%; pest or weed control at 31 g/ha ([14]; Postemergence, 31 g ai/ha, visual injury after approx. 10 d, 0 to 100 scale, 0 no effect, 100 complete control, read-out: Plant response rating, Galium): 0%"
